# Test results reported in patent US20220378761A1, “PAPD5 Inhibition As A Treatment For Dyskeratosis Congenita, Aplastic Anemia And Myelodysplastic Syndrome Caused By Reduced Telomerase RNA Levels” (The Regents of The University of Colorado, A Body Corporate, priority 2019, published 2022).
# System: telomerase
# Assay: Telomerase activity by telomere repeat amplification (TRAP) in HeLa cells
# Type: cell-based, Homo sapiens
# Parameters: dose or concentration left out as unconfirmed
# Settings: DKC1- and PARN-depleted HeLa cells, RG7834 or DMSO (FIG. 1D)
# Method: Th present inventors have previously shown that in DKC1- or PARN-depleted cells, TERC accumulates in cytoplasmic puncta called “cyTER bodies,” instead of its normal localization to cajal bodies in the nucleus. To investigate whether RG7834 treatment rescued TERC localization to cajal bodies in the nucleus, DKC1- or PARN-depleted cells were treated with RG7834 for 2 days. […] Upon treatment with RG7834, —38% of cells had TERC localized to cajal bodies, which is consistent with the 1.5× increase in TERC levels in these cells. RG7834 treatment also rescued TERC localization to cajal bodies in PARN-depleted cells. In PARN knockdown cells, ˜34% of cells had TERC in cajal bodies, with TERC also mostly being localized to cyTER bodies in these cells. However, upon RG7834 treatment, ˜85% of cells had TERC localized to cajal bodies.
# Detection of telomerase activity: Telomerase activity was assessed by Telomere Repeat Amplification Protocol (TRAP). Briefly, cells were lysed in NP-40 buffer at 4° C. for 20 min and centrifuged at 13,000 rpm for 10 min. Telomere extension reactions were performed using 2, 0.5, and 0.125 μg of protein and following products were amplified by PCR. Adenosine triphosphate, labeled on the gamma phosphate group with 32P (Perkin-Elmer, USA) was used for labelling of PCR products. […]
smiles,measurement,value
COCCCOc1cc2c(cc1OC)-c1cc(=O)c(C(=O)O)cn1[C@H](C(C)C)C2 [RG7834],telomerase activity,increase telomerase activity
